Molecules are shown by their SMILES. Where a SMILES comes first, the peptide text is derived from it. Bridges are numbered along the chain shown (N, C = ends).

The target of one test is human α7-containing nAChRs (Homo sapiens, UniProt P36544). Put plainly: cell-based. Format: cell-based.
human α7-containing nAChRs, sequence (P36544 23-502 limits assumed): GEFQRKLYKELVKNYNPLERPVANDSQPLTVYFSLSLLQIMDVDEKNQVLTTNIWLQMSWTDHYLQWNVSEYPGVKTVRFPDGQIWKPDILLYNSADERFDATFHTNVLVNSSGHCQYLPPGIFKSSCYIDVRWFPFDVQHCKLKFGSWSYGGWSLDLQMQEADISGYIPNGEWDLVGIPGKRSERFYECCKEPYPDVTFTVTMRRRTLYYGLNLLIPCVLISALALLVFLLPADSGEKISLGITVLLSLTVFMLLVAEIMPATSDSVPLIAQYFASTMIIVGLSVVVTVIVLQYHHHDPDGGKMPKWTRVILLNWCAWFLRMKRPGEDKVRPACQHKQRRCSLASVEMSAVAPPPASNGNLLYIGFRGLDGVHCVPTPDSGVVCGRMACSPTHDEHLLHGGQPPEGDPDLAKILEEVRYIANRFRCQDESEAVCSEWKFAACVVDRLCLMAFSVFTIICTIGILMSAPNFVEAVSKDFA
Conditions: not given
Take `CC(C)[C@H](NC(=O)[C@@H]1CSSC[C@@H]2NC(=O)[C@@H](NC(=O)[C@@H](N)CO)CSSC[C@H](NC(=O)[C@H](C)NC(=O)[C@H](C)NC(=O)[C@H](CC(N)=O)NC(=O)[C@H](CCCNC(=N)N)NC(=O)[C@H](C)NC2=O)C(=O)N[C@@H](CCCNC(=N)N)C(=O)N[C@@H](Cc2c[nH]cn2)C(=O)N[C@@H](CC(N)=O)C(=O)N[C@@H](Cc2c[nH]cn2)C(=O)N2CCC[C@H]2C(=O)N1)C(N)=O` [gAusIA [P7A]] (H-SCCARNAACRHNHPCV-NH2; disulfide 2-9, 3-15): the IC50 (in general, the point on the concentration scale where inhibition reaches its midpoint) was over 100 µM.
The compound `CC(C)[C@H](NC(=O)[C@@H]1CSSC[C@H](NC(=O)[C@@H](N)CO)C(=O)N[C@H]2CSSC[C@H](NC(=O)[C@H](C)NC(=O)[C@@H]3CCCN3C(=O)[C@H](CC(N)=O)NC(=O)[C@H](C)NC(=O)[C@H](C)NC2=O)C(=O)N[C@@H](CCCNC(=N)N)C(=O)N[C@@H](Cc2c[nH]cn2)C(=O)N[C@@H](CC(N)=O)C(=O)N[C@@H](Cc2c[nH]cn2)C(=O)N2CCC[C@H]2C(=O)N1)C(N)=O` [rAusIA [R5A]] (H-SCCAANPACRHNHPCV-NH2; disulfide 2-15, 3-9) displayed an IC50 of over 100 µM.
The same measure, in the same setting: next, `CC(C)[C@H](NC(=O)[C@@H]1CSSC[C@@H]2NC(=O)[C@@H](NC(=O)[C@@H](N)CO)CSSC[C@H](NC(=O)[C@H](C)NC(=O)[C@@H]3CCCN3C(=O)[C@H](CC(N)=O)NC(=O)[C@H](CCCNC(=N)N)NC(=O)[C@H](C)NC2=O)C(=O)N[C@@H](C)C(=O)N[C@@H](Cc2c[nH]cn2)C(=O)N[C@@H](CC(N)=O)C(=O)N[C@@H](Cc2c[nH]cn2)C(=O)N2CCC[C@H]2C(=O)N1)C(N)=O` [gAusIA [R10A]] (H-SCCARNPACAHNHPCV-NH2; disulfide 2-9, 3-15): over 100 µM; `CC(C)[C@H](NC(=O)[C@@H]1CSSC[C@@H]2NC(=O)[C@@H](NC(=O)[C@@H](N)CO)CSSC[C@H](NC(=O)[C@H](C)NC(=O)[C@@H]3CCCN3C(=O)[C@H](CC(N)=O)NC(=O)[C@H](CO)NC(=O)[C@H](C)NC2=O)C(=O)N[C@@H](CCCNC(=N)N)C(=O)N[C@@H](Cc2c[nH]cn2)C(=O)N[C@@H](CC(N)=O)C(=O)N[C@@H](Cc2c[nH]cn2)C(=O)N2CCC[C@H]2C(=O)N1)C(N)=O` [gAusIA [R5S]] (H-SCCASNPACRHNHPCV-NH2; disulfide 2-9, 3-15): over 100 µM.
As to `CC(C)[C@H](NC(=O)[C@@H]1CSSC[C@@H]2NC(=O)[C@@H](NC(=O)CN)CSSC[C@H](NC(=O)[C@H](C)NC(=O)[C@@H]3CCCN3C(=O)[C@H](CC(N)=O)NC(=O)[C@H](CCCNC(=N)N)NC(=O)[C@H](C)NC2=O)C(=O)N[C@@H](CCCNC(=N)N)C(=O)N[C@@H](Cc2c[nH]cn2)C(=O)N[C@@H](CC(N)=O)C(=O)N[C@@H](Cc2c[nH]cn2)C(=O)N2CCC[C@H]2C(=O)N1)C(N)=O` [gAusIA [S1G]] (H-GCCARNPACRHNHPCV-NH2; disulfide 2-9, 3-15), the “Ratio (IC50 ratio between gAusIA/rAusIA and its corresponding analogues)” value is 0.70; the “antagonistic activity / potency at α7-containing nAChRs in words” value was “comparable potency to gAusIA”.

The same test, now with this note: SEM.
For `C[C@@H]1NC(=O)[C@@H]2CSSC[C@H](NC(=O)[C@H](C)NC(=O)[C@@H]3CCCN3C(=O)[C@H](CC(N)=O)NC(=O)[C@H](CCCNC(=N)N)NC1=O)C(=O)N[C@@H](CCCNC(=N)N)C(=O)N[C@@H](Cc1c[nH]cn1)C(=O)N[C@@H](CC(N)=O)C(=O)N[C@@H](Cc1c[nH]cn1)C(=O)N1CCC[C@H]1C(=O)N[C@H](C(N)=O)CSSC[C@H](NC(=O)[C@@H](N)CO)C(=O)N2` [rAusIA [∆16]] (H-SCCARNPACRHNHPC-NH2; disulfide 2-15, 3-9), the IC50 came to 60 ± 9.9 µM.
The same measure, in the same setting: next, `CC(C)[C@H](NC(=O)[C@@H]1CSSC[C@H](NC(=O)[C@@H](N)CO)C(=O)N[C@H]2CSSC[C@H](NC(=O)[C@H](C)NC(=O)[C@@H]3CCCN3C(=O)[C@H](CC(N)=O)NC(=O)[C@H](CCCNC(=N)N)NC(=O)[C@H](CO)NC2=O)C(=O)N[C@@H](CCCNC(=N)N)C(=O)N[C@@H](Cc2c[nH]cn2)C(=O)N[C@@H](CC(N)=O)C(=O)N[C@@H](Cc2c[nH]cn2)C(=O)N2CCC[C@H]2C(=O)N1)C(N)=O` [rAusIA [A4S]] (H-SCCSRNPACRHNHPCV-NH2; disulfide 2-15, 3-9): 32 ± 7.3 µM; `CC(C)[C@H](NC(=O)[C@@H]1CSSC[C@@H]2NC(=O)[C@@H](NC(=O)[C@@H](N)CO)CSSC[C@H](NC(=O)[C@H](C)NC(=O)[C@@H]3CCCN3C(=O)[C@H](CC(N)=O)NC(=O)[C@H](CCCNC(=N)N)NC2=O)C(=O)N[C@@H](CCCNC(=N)N)C(=O)N[C@@H](Cc2c[nH]cn2)C(=O)N[C@@H](CC(N)=O)C(=O)N[C@@H](Cc2c[nH]cn2)C(=O)N2CCC[C@H]2C(=O)N1)C(N)=O` [gAusIA [∆4]] (H-SCCRNPACRHNHPCV-NH2; disulfide 2-8, 3-14): 1 ± 0.03 µM.
`CC(C)C[C@@H]1NC(=O)[C@H](CCCNC(=N)N)NC(=O)[C@@H]2CSSC[C@H](NC(=O)[C@@H](NC(=O)[C@@H](N)CO)CSSC[C@@H](C(=O)N[C@H](C(N)=O)C(C)C)NC(=O)[C@@H]3CCCN3C(=O)[C@H](Cc3c[nH]cn3)NC(=O)[C@H](CC(N)=O)NC1=O)C(=O)N[C@@H](C)C(=O)N[C@@H](CCCNC(=N)N)C(=O)N[C@@H](CC(N)=O)C(=O)N1CCC[C@H]1C(=O)N[C@@H](C)C(=O)N2` [rAusIA [H11L]] (H-SCCARNPACRLNHPCV-NH2; disulfide 2-15, 3-9) showed an IC50 of 30 ± 2.2 µM.
The compound `C[C@@H]1NC(=O)[C@@H]2CSSC[C@@H](C(N)=O)NC(=O)[C@@H]3CCCN3C(=O)[C@H](Cc3c[nH]cn3)NC(=O)[C@H](CC(N)=O)NC(=O)[C@H](Cc3c[nH]cn3)NC(=O)[C@H](CCCNC(=N)N)NC(=O)[C@H](CSSC[C@H](NC(=O)[C@@H](N)CO)C(=O)N2)NC(=O)[C@H](C)NC(=O)[C@@H]2CCCN2C(=O)[C@H](CC(N)=O)NC(=O)[C@H](CCCNC(=N)N)NC1=O` [gAusIA [∆16]] (H-SCCARNPACRHNHPC-NH2; disulfide 2-9, 3-15) yielded an IC50 of 12 ± 2.3 µM.
`CC(C)[C@H](NC(=O)[C@@H]1CSSC[C@@H]2NC(=O)[C@@H](NC(=O)[C@@H](N)CO)CSSC[C@H](NC(=O)[C@H](C)NC(=O)[C@@H]3CCCN3C(=O)[C@H](CC(N)=O)NC(=O)[C@H](C)NC2=O)C(=O)N[C@@H](CCCNC(=N)N)C(=O)N[C@@H](Cc2c[nH]cn2)C(=O)N[C@@H](CC(N)=O)C(=O)N[C@@H](Cc2c[nH]cn2)C(=O)N2CCC[C@H]2C(=O)N1)C(N)=O` [gAusIA [∆5]] (H-SCCANPACRHNHPCV-NH2; disulfide 2-8, 3-14): the IC50 is 0.59 ± 0.08 µM.
Turning to `CC[C@H](C)[C@@H]1NC(=O)[C@H](CC(N)=O)NC(=O)[C@@H]2CCCN2C(=O)[C@H](CC(N)=O)NC(=O)[C@H](CC(N)=O)NC(=O)[C@H](C(C)C)NC(=O)[C@H](CCCNC(=N)N)NC(=O)[C@@H]2CSSC[C@H](NC(=O)CNC(=O)[C@@H](N)CO)C(=O)N[C@@H](CSSC[C@@H](C(N)=O)NC1=O)C(=O)N[C@@H](CO)C(=O)N[C@@H](CCCNC(=N)N)C(=O)N[C@@H](CC(N)=O)C(=O)N1CCC[C@H]1C(=O)N[C@@H](C)C(=O)N2` [gLsIA [∇R6]] (H-SGCCSRNPACRVNNPNIC-NH2; disulfide 3-10, 4-18), the IC50 was determined as 8 ± 0.52 µM.

Source of the values: article PMC8578332 (Scientific Reports, 2021).
